In paper PMC5656596, “Yucasin DF, a potent and persistent inhibitor of auxin biosynthesis in plants” (Scientific Reports, 2017):

Key:
[1] = target: T1, AtYUC1 (AtYUC1-His, YUC1) (Arabidopsis thaliana, UniProt Q9SZY8); test: LC-MS/MS of IAA formed from IPA; assay type: biochemical; details: 20 µM IPA, 40 µM FAD, 1 mM NADPH, 10 mM Tris-HCl pH 7.5, 35 °C, 30 min
T1 construct: recombinant His-tagged, pET-53-DEST, E. coli BL21 Star (DE3), TALON purified, tag kept
T1 sequence (Q9SZY8 1-414): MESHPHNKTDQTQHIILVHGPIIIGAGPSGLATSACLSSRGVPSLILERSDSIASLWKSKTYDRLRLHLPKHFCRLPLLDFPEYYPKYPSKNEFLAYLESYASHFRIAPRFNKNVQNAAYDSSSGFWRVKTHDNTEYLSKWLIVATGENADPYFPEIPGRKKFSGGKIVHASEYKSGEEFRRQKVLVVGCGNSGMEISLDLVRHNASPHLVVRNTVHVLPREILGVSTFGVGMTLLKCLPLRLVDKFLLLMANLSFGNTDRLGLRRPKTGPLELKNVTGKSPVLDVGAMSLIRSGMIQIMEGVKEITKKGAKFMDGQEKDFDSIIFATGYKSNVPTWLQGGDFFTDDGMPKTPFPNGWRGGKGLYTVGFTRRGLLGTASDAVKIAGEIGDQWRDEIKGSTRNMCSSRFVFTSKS

[2] = target: T2, AtYUC6 (YUC6) (Arabidopsis thaliana, UniProt Q8VZ59); test: photoaffinity labelling, Staudinger-Bertozzi ligation to fluorescent phosphine, SDS-PAGE; assay type: binding; details: 20 µM probe, 254 nm UV, on ice, 10 mM phosphate buffer; active site, competitive with IPA and PPA; covalent; labelled compound
T2 construct: purified recombinant
T2 sequence (Q8VZ59 1-417): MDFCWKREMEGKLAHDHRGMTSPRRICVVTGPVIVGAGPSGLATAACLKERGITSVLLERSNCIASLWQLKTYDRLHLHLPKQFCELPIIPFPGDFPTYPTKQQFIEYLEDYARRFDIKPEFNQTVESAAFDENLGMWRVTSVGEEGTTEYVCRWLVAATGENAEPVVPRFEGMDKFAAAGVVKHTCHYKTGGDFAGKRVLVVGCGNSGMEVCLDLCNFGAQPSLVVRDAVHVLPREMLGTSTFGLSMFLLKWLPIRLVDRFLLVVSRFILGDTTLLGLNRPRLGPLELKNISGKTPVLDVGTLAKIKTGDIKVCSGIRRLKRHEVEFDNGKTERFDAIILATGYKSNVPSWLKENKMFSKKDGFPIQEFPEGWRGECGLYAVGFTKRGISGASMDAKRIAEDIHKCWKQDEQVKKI

[3] = target: T2, AtYUC6 (YUC6); test: competition with photoaffinity probe labelling; assay type: binding; details: active site

Compound: S=c1[nH]nc(-c2ccc(Cl)cc2)[nH]1 [yucasin, 5-[4-chlorophenyl]-2,4-dihydro-[1,2,4]-triazole-3-thione]
- enzyme activity at 1 or 10 μM inhibitor [1]: Yucasin inhibited the recombinant YUC1 enzyme activity more potent than YDF

Compound: [N-]=[N+]=NCc1cc(N=[N+]=[N-])cc(-c2n[nH]c(=S)[nH]2)c1 [photoaffinity yucasin probe]
- photoaffinity labelling, Staudinger-Bertozzi ligation to fluorescent phosphine, [2]: A fluorescent signal from the photoaffinity-labeled probe of YUC6 was detected

Compound: Fc1cccc(F)c1-c1n[nH]c(=S)[nH]1 [compound 1, 5-[2,6-difluorophenyl]-2,4-dihydro-[1,2,4]-triazole-3-thione]
- enzyme activity at 1 or 10 μM inhibitor [1]: we measured the inhibitory activity of YDF on the recombinant AtYUC1 enzyme

Compound: O=C(O)C(=O)Cc1ccccc1 [PPA]
- competition with photoaffinity probe labelling ([3]; 200 µM PPA against 20 µM probe): The fluorescent signal disappeared when the probe was photoactivated in the presence of the substrates

Compound: O=C(O)C(=O)Cc1c[nH]c2ccccc12 [IPA]
- competition with photoaffinity probe labelling ([3]; 200 µM IPA against 20 µM probe): The fluorescent signal disappeared when the probe was photoactivated in the presence of the substrates
